Assay results reported in patent publication US20240016773A1, “COMPOSITIONS AND METHODS FOR DIAGNOSIS AND TREATMENT OF CONDITIONS RELATED TO AGING” (EPITRACKER, INC., priority 2018, published 2024).

Legend:
[1] = tested on: CD19+ B cells and peripheral blood mononuclear cells stimulated with α-IgM and TCR ligands; assay: First cell-based system: T cell-dependent activation of B cells (allergy); parameters: species or system human
Protocol: This study examined the impact of synthetic pentadecanoic acid (C15:0) at four concentrations (740 nm and 2.2, 6.7, and 20 μM) on three primary human cell-based activity systems that were exposed to agents that mimicked allergic, thrombotic, and fibrotic disease states. In general, protein-based biomarkers in these systems were measured and compared with controls. Pentadecanoic acid was considered ‘active’ when 2 or more consecutive concentrations changed a given biomarker in the same direction relative to vehicle controls, were outside of the significance envelope of internal controls, and had at least one concentration with an effect size greater than 20% (log 10 ratio >0.1).
The first cell-based system recapitulated T cell-dependent activation of B cells that occurs in germinal centers to mimic allergy disease states. CD19^+ B cells and peripheral blood mononuclear cells were stimulated with α-IgM and TCR ligands and incubated with pentadecanoic acid for 168 hours. In addition to controls that were not treated with pentadecanoic acid, a negative, non-stimulated system was also included. Secreted IgG was measured and compared with controls.

[2] = tested on: BT system: peripheral blood mononuclear cells, B cells (α-IgM, TCR ligands); assay: BioMAP Diversity PLUS, BT system; assay type: cell-based, human
Text: (§1) The Diversity PLUS panel allows test agent characterization in an unbiased way across a broad set of systems modeling various human disease states. These systems are designed to model complex human tissue and disease biology of the vasculature, skin, lung, and inflammatory tissues. Quantitative measurements of 148 biomarker activities across this broad panel, along with comparative analysis of biological activities from known bioactive agents, were used to predict and compare the efficacy and function of each selected compound at four concentrations (740 nm and 2.2, 6.7 and 20 μM).
(§2) BioMAP systems are constructed with one or more primary cell types from healthy human donors, with stimuli (such as cytokines or growth factors) added to capture relevant signaling networks that naturally occur in human tissue or pathological conditions. Vascular biology is modeled in both a Th1 (3C system) and a Th2 (4H system) inflammatory environment, as well as in a Th1 inflammatory state specific to arterial smooth muscle cells (CASM3C system). Additional systems recapitulate aspects of the systemic immune response including monocyte-driven Th1 inflammation (LPS system) or T cell stimulation (SAg system), chronic Th1 inflammation driven by macrophage activation (lMphg system) and the T cell-dependent activation of B cells that occurs in germinal centers (BT system). The BE3C system (Th1) and the BF4T system (Th2) represent airway inflammation of the lung, while the MyoF system models myofibroblast-lung tissue remodeling. Lastly, skin biology is addressed in the KF3CT system modeling Th1 cutaneous inflammation and the HDF3CGF system modeling wound healing.
(§3) Each test agent generates a signature BioMAP profile that is created from the changes in protein biomarker readouts within individual system environments. Biomarker readouts (7-17 per system) are selected for therapeutic and biological relevance, are predictive for disease outcomes or specific drug effects and are validated using agents with known mechanism of action (MoA). Each readout is measured quantitatively by immune-based methods that detect protein (e.g., ELISA) or functional assays that measure proliferation and viability. BioMAP readouts are diverse and include cell surface receptors, cytokines, chemokines, matrix molecules and enzymes. In total, the Diversity PLUS panel contains 148 biomarker readouts that capture biological changes that occur within the physiological context of the particular BioMAP system. Specific BioMAP activities have been correlated to in vivo biology, and multiparameter BioMAP profiles have been used to distinguish compounds based on MoA and target selectivity across diverse physiological systems.
(§4) Activated BioMAP systems were incubated with each compound for 24 to 72 hours. Protein-based biomarkers from activated cell systems were measured and compared with non-treated control systems.

[3] = tested on: New Zealand white rabbits fed a high fat diet; assay: High fat diet-fed New Zealand white rabbit model, daily pentadecanoic acid in diet; assay type: in vivo
Protocol: This study examined the impact of daily oral administration of synthetic pentadecanoic acid (C15:0) on serum globulins, cholesterol, and liver fibrosis in an animal model fed a high fat diet. Sixteen New Zealand white rabbits were fed a high fat diet (HFD) (4% peanut oil and 0.5% cholesterol) for 2 weeks. Study rabbits were then divided into the following two groups of eight: high fat diet controls, and high fat diet animals treated with pentadecanoic acid (35 mg/kg body weight). The test article was a synthetic powder form stable at room temperature and purchased from Sigma-Aldrich (Products W433400 (≥99% pentadecanoic acid). The test article was provided daily in the diet for 11 weeks (77 days) while continuing ad libitum access to the HFD. Total cholesterol, platelets, and globulins were measured at Days 0 and 77.
On Day 77, liver tissues from HFD controls and pentadecanoic acid-treated animals were collected and scored histologically for fibrosis by a board-certified veterinary pathologist. Liver tissues were processed into paraffin-embedded blocks for H&E and picrosirius red staining for fibrosis (collagen deposition). Whole picrosirius red stained liver slides were scanned using Aperio ScanScope AT2 at 20×. Fibrosis stages were defined as follows: 0=none, 1=persinusoidal or periportal, 2=perisinusoidal and portal/periportal, 3=bridging fibrosis, 4=cirrhosis. Data from the treated group were compared to the control group using Wilcoxon rank sum analyses. Significance was defined as a P value less than or equal to 0.05.

[4] = tested on: SAg system: venular endothelial cells, peripheral blood mononuclear cells (TCR ligands); assay: BioMAP Diversity PLUS, SAg system; assay type: cell-based, human
Text: as §1, §2, §3, §4

Q: For `CCCCCCCCCCCCCCC(=O)O` [Pentadecanoic acid, pentadecanoic acid], which “Secreted IgG (FIG. 2)” value ([1]; 168 hours incubation, 6.7 μM and 20 μM bioactive, vs controls) is on record?
A: dose-dependent decreases

Q: What about the Cytotoxicity ([1]; all four concentrations (740 nm and 2.2, 6.7, and 20 μM)) of the same compound?
A: non-cytotoxic

Q: And the “Significant log10 reduction vs nontreated controls: Secreted interleukin 17A (IL-17A)” value ([2]; 2.2 μM)?
A: −0.25 log10

Q: What about the “Significant log10 reduction vs nontreated controls: Secreted interleukin 17F (IL-17F)” value ([2]; 2.2 μM) of the same compound?
A: −0.16 log10

Q: What about the “Significant log10 reduction vs nontreated controls: Secreted immunoglobulin G (IgG)” value ([2]; 6.7 μM) of the same compound?
A: −0.17 log10

Q: And the “Significant log10 reduction vs nontreated controls: Secreted immunoglobulin G (IgG)” value ([2]; 20.0 μM)?
A: −0.55 log10

Q: What about the “Significant log10 reduction vs nontreated controls: Secreted interleukin 6 (IL-6)” value ([2]; 20.0 μM) of the same compound?
A: −0.29 log10

Q: What about the “Significant log10 reduction vs nontreated controls: Secreted interleukin 17A (IL-17A)” value ([2]; 20.0 μM) of the same compound?
A: −0.29 log10

Q: And the “Significant log10 reduction vs nontreated controls: Secreted interleukin 17F (IL-17F)” value ([2]; 20.0 μM)?
A: −0.18 log10

Q: What about the Early mortalities ([3]; 35 mg/kg daily in diet, 11 weeks) of the same compound?
A: no early mortalities

Q: And the “Tolerability of test article” value ([3]; 35 mg/kg daily in diet, 11 weeks, HFD rabbits)?
A: tolerated the test article throughout the study

Q: And the “Stage 3 bridging fibrosis in liver (FIG. 1)” value ([3]; 35 mg/kg daily oral for 11 weeks, histology, picrosirius red)?
A: lack of Stage 3 bridging fibrosis

Q: And the “Platelets compared with HFD control group” value ([3]; Day 77, 35 mg/kg, HFD rabbits)?
A: lower

Q: And the Globulins ([3]; Index at Day 77 (head), 35 mg/kg dose daily in diet 11 weeks, HFD rabbits, P 0.004)?
A: 1.3 ± 0.7 G/dl

Q: And the Cholesterol ([3]; Index at Day 77 (head), 35 mg/kg dose daily in diet 11 weeks, HFD rabbits, plasma, P 0.024)?
A: 2516 ± 746 mg/dL

Q: What about the “Liver Fibrosis Stage” value ([3]; Index at Day 77 (head), 35 mg/kg dose, n = 8, stage score 0-4, P 0.016) of the same compound?
A: 2.3 ± 0.5

Q: What about the “Significant log10 reduction vs nontreated controls: Monocyte chemoattractant protein 1 (MCP-1)” value ([4]; 6.7 μM) of the same compound?
A: −0.18 log10

Q: And the “Significant log10 reduction vs nontreated controls: Monocyte chemoattractant protein 1 (MCP-1)” value ([4]; 20.0 μM)?
A: −0.15 log10
